Columns and labels:
β-galactosidase [1] = molecular target: T1, β-galactosidase (Escherichia coli, UniProt P00722); format: biochemical; details: 2.5 μM compound, 0.5 mg/mL BSA; for fluorescence at the band of BSA after SDS-PAGE: 5 U β-galactosidase, excitation 488 nm
Procedure: (1) 2.5 μM 4-CH2F-HMDER-βGal and 0.5 mg/mL BSA, (2) 2.5 μM 4-CH2F-HMDER-βGal, 0.5 mg/mL BSA, and 5 U of β-galactosidase, (3) 2.5 μM 4-CHF2-HMDER-βGal, 0.5 mg/mL BSA, and 5 U of β-galactosidase, (4) 2.5 μM 2-CHF2-HMDER-βGal, 0.5 mg/mL BSA, and 5 U of β-galactosidase, and (5) 2.5 μM HMDER-βGal, 0.5 mg/mL BSA, and 5 U of β-galactosidase were each reacted in aqueous solution (500 mM sodium phosphate buffer solution having a pH of 7.4), after which the reaction products were subjected to SDS-PAGE (running gel: 10%, stacking gel: 4%, electrophoresis voltage: 200 V). […] After observation, each gel was Coomassie stained and the position of the BSA on the gel was confirmed (FIG. 4(b)).

HEK-lacZ cell lysate = molecular target: T2, HEK-lacZ cell lysate (Escherichia coli, UniProt P00722); format: biochemical; details: 2.5 μM compound; for fluorescence labeling of intracellular protein after SDS-PAGE: 1.5 mg/mL HEK-lacZ cell lysate, 30 minutes 37° C.
T2 construct: expressed in transfected cells; host or cells: HEK cells (HEK-lacZ), used as cell lysate
Source text: HEK cells (HEK-lacZ cells) expressing β-galactosidase and HEK cells were used.

β-galactosidase [2] = molecular target: T1, β-galactosidase; format: biochemical; details: 30 minutes, 250 mM sodium phosphate buffer pH 7.4, excitation 550 nm
Procedure: Absorption spectrum variation and fluorescence spectrum variation (excitation wavelength: 550 nm) caused by enzyme reaction of β-galactosidase and the enzyme-specific retainable fluorescent compound of the present invention 2-CHF2-HMDER-βGal, 4-CHF2-HMDER-βGal, or 4-CH2F-HMDER-βGal for 30 minutes was measured in the presence of a 250 mM sodium phosphate buffer solution (pH: 7.4). Measurement was performed using a Shimadzu UV-2450 (manufactured by Shimadzu Corporation) and a Hitachi F-7000 (manufactured by Hitachi, Ltd.).

[3] = system: fruit fly fat body overexpressing β-galactosidase; details: 10 μM, fat bodies of third-instar fly
Procedure: In order to analyze cells in fruit fly (Drosophila melanogaster) fat body, overexpression of β-galactosidase was induced by crossing UAS-lacZ with hs-flp^122; Actin>y>Gal4 using a flip-out technique. To perform living-cell fluorescence imaging, fat bodies were dissected from a third-instar (final instar) fly and incubated for 29 minutes in a culture medium including 10 μM 4-CH2F-HMDER-βGal and 16 μM Hoechst 33342 (cell nuclear stain), and the fat bodies were washed with PBS and immersed in 80% glycerol. To perform immunostaining, the dissected adipocytes were immersed for 20 minutes in PBS containing 4% paraformaldehyde (PFA) and fixed. […] The observation conditions were as follows: (Hoeschst 33342) excitation light: 405 nm, observation wavelength: 415 to 490 nm, (4-C2F-HMDER-βGal) excitation light: 514 nm, observation wavelength: 525 to 600 nm, (Alexa 647 modified secondary antibodies) excitation light: 633 nm, observation wavelength: 640 to 700 nm, 40× magnification.

[4] = system: ovarian cancer cells SHIN3; details: intraperitoneal administration, observed 1 hour later, SHIN3 cancer model mouse
Procedure: A cancer model mouse inoculated with ovarian cancer cells SHIN3 was produced. Acidic β-galactosidase activity is known to be elevated in ovarian cancer cells. 4-CH2F-HMDER-βGal was intraperitoneally administered to the cancer model mouse, and fluorescence was observed 1 hour later using a Maestro in-vivo imaging system (CRi). The observation conditions were as follows: excitation light: 490 to 530 nm, observation wavelength: 550 to 800 nm.

HEK-lacZ cells [5] = assay: Detection of β-galactosidase activity in living cells using flow cytometry; format: cell-based; details: mixture of HEK-LacZ and HEK cells, 1 μM, 30 minutes, excitation 488 nm
Procedure: These cells were analyzed by excitation light having a wavelength of 488 nm using an Accuri C6 (Accuri Cytometers, Inc.) flow cytometer.

[6] = system: wing primordia (wing discs) with arm-lacZ / His2Av-mRFP1 cells; details: 10 μM, 30 minutes, non-fixed wing primordia
Procedure: A male His2Av-mRFP1, FRT80B/TM6B fruit fly (Drosophila melanogaster) and a female hs-flp; arm-lacZ FRT80B fruit fly were crossed, a heat shock at a temperature of 37° C. for 1 hour was applied to the offspring at the first-instar larval stage 30 hours after hatching thereof, and cells having the following three genotypes were expressed in the wing primordia (wing discs): (1) cells expressing only β-galactosidase (arm-lacZ), (2) cells expressing only red fluorescent protein (mRFP1) (His2Av-mRFP1), and (3) cells expressing both β-galactosidase and mRFP1 (arm-lacZ/His2Av-mRFP1). […] The observation conditions were as follows: (4-CH2F-HMDER-βGal) excitation light: 514 nm, observation wavelength: 525 to 585 nm, (mRFP1) excitation light: 594 nm, emission wavelength: 610 to 700 nm, 63× magnification.

[7] = system: fruit fly (esg-lacZ) expressing β-galactosidase in the midgut; details: midgut fixed with 4% PFA, reacted 10 minutes
Procedure: A fruit fly (esg-lacZ) expressing β-galactosidase in the midgut thereof was dissected and fixed with 4% FPA. Then, 4-CH2F-HMDER-βGal was added and reacted for 10 minutes.

[8] = system: Wing primordia (wing discs) of a (en-lacZ) fruit fly expressing β-galactosidase; assay: Fluorescence imaging of non-fixed biological tissue having β-galactosidase activity; details: 20 μM, 30 minutes, room temperature
Source text: The observation conditions were as follows: Ar: 40% to 25%, excitation light: 314 nm, emission wavelength: 535 to 595 nm (HyD2), 20× magnification.

HEK-lacZ cells [9] = assay: Fluorescence imaging of living cells expressing β-galactosidase (confocal microscope); details: for fluorescence imaging of β-galactosidase activity of individual cells: mixture of HEK-LacZ cells and HEK cells, without washing
Procedure: HEK cells, HEK-lacZ cells, and a mixture thereof were incubated (at 37° C. in the presence of 5% CO2) for 30 minutes together with 1 μM 4-CH2F-HMDER-βGal or HMDER-βGal, after which a fluorescence image and a differential interference image (DIC) of the cells were acquired using a confocal microscope, before and after washing twice with culture medium. […] A TCS SP5 X (manufactured by Leica) equipped with white light laser and an HCX PL APO CS 40×/1.25 objective lens (manufactured by Leica) was used as the confocal microscope, which was controlled by LAS AF software. The observation conditions were as follows: white light laser (WLL): 80% to 25%, excitation wavelength: 525 nm, observation wavelength: 535 to 595 nm, gain: 800 V (PMT1)/350 V (Scan-DIC), offset: 0%, pinhole: 67.88 μM (Airy disk).

T1 sequence (P00722 2-1024): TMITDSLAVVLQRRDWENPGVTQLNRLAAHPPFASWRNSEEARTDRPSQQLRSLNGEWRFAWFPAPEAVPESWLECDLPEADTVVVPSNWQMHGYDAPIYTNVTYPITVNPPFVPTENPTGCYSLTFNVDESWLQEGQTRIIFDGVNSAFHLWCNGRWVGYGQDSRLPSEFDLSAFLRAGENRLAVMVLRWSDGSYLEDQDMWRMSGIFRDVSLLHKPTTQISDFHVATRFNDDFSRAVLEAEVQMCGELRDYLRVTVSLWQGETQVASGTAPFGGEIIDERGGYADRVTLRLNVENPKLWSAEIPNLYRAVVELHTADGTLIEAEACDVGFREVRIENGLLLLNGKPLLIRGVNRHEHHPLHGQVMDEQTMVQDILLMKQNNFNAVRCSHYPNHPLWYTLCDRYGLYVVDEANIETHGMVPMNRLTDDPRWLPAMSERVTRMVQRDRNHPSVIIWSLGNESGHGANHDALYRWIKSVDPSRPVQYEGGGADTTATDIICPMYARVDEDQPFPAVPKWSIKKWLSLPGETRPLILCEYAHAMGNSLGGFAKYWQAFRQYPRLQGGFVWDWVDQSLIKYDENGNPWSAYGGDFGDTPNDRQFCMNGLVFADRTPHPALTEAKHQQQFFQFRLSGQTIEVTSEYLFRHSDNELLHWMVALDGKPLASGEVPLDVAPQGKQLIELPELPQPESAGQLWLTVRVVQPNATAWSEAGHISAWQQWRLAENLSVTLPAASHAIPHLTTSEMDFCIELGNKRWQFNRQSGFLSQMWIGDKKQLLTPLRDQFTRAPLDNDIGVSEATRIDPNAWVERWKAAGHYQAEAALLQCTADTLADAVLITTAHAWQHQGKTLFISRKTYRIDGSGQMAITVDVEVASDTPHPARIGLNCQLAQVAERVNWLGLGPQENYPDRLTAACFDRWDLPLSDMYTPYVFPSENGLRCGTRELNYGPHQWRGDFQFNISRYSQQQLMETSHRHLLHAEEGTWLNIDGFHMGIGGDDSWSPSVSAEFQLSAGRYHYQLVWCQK
T2 sequence (P00722 whole entry): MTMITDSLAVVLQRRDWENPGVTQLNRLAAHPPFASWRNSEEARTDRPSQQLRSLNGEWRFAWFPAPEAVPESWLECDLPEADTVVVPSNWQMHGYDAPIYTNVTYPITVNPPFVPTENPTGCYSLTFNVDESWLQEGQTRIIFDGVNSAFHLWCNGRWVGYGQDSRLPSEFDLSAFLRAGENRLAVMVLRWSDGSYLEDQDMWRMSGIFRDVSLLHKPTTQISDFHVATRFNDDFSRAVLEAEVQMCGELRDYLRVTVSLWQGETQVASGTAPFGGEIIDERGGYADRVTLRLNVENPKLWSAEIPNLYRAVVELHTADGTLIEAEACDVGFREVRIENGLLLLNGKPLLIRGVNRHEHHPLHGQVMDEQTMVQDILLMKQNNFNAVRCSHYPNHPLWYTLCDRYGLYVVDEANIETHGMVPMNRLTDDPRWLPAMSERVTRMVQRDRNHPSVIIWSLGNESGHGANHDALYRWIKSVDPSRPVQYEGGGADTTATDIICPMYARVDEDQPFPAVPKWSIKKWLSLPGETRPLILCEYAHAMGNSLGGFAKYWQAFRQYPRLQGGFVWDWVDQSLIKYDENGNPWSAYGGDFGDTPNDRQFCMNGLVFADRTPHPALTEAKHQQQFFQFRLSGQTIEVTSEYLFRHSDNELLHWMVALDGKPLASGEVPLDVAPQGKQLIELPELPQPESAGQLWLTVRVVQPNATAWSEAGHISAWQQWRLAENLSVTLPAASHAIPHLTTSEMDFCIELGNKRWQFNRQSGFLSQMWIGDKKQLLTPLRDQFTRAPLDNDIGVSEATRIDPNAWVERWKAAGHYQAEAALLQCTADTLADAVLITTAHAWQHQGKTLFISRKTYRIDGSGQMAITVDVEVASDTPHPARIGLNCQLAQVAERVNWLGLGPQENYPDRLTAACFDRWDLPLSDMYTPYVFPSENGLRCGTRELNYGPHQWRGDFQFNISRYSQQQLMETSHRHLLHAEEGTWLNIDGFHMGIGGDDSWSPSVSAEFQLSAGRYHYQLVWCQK

Compound | fluorescence at the band of BSA after SDS-PAGE (β-galactosidase [1]) | fluorescence labeling of intracellular protein after SDS-PAGE (HEK-lacZ cell lysate) | fluorescence emission as a result of enzyme reaction with β-galactosidase (β-galactosidase [2]) | fluorescence at the band of BSA after SDS-PAGE, sample not including β-galactosidase (β-galactosidase [1]; no β-galactosidase (lane 1)) | fluorescence imaging of β-galactosidase-expressing cells in fat body [3] | cancer-site-selective fluorescence imaging [4] | differentiation of HEK-LacZ cells and HEK cells by flow cytometry (HEK-lacZ cells [5]) | visualization of mosaic pattern of β-galactosidase-positive cells [6] | fluorescence labeling of intracellular protein after SDS-PAGE, HEK cells not expressing β-galactosidase (HEK-lacZ cell lysate; 1.5 mg/mL HEK cell lysate (lane 1)) | single-cell fluorescence imaging in fixed tissue [7] | selective fluorescence imaging of the region having β-galactosidase activity [8] | fluorescence of HEK-LacZ cells (HEK-lacZ cells [9]; 1 μM, 30 minutes, observed without washing) | change in fluorescence intensity after washing (retention in cells) (HEK-lacZ cells [9]; 1 μM, 30 minutes, washed twice with culture medium) | fluorescence imaging of fixed samples (HEK-lacZ cells [9]; cells fixed with 4% PFA for 10 minutes after incubation) | fluorescence imaging of β-galactosidase activity of individual cells (HEK-lacZ cells [9]; 1 μM, 30 minutes)
CCN(CC)c1ccc2c(c1)Oc1cc(O[C@@H]3O[C@H](CO)[C@H](O)[C@H](O)[C@H]3O)c(C(F)F)cc1C21OCc2ccccc21 (stereo partly drawn) [2-CHF2-HMDER-βGal, (2S,3R,4S,5R,6R)-2-((6′-(diethylamino)-2′-(difluoromethyl)-3H-spiro[isobenzofuran-1,9′-xanthen]-3′-yl)oxy)-6-(hydroxymethyl)tetrahydro-2H-pyran-3,4,5-triol] | Fluorescence was observed at the band of BSA | Fluorescence labeling to the intracellular protein was confirmed | emitted fluorescence | – | – | – | – | – | – | – | – | – | – | – | –
CCN(CC)c1ccc2c(c1)Oc1c(ccc(O[C@@H]3O[C@H](CO)[C@H](O)[C@H](O)[C@H]3O)c1CF)C21OCc2ccccc21 (some centres unmarked) [4-CH2F-HMDER-βGal] | Fluorescence was observed at the band of BSA | Fluorescence labeling to the intracellular protein was confirmed | emitted fluorescence | Fluorescence was not observed | it is possible to perform fluorescent imaging of cells of interest in which β-galactosidase is expressed | can be applied in cancer-site-selective fluorescence imaging | possible to clearly differentiate between these cell types | the mosaic pattern of the cells having the three genotypes described above was clearly visualized | Fluorescence was not confirmed | it was possible to confirm a cell emitting fluorescence in a tissue | selective fluorescence imaging of the region of interest (posterior section) having β-galactosidase activity was possible | exhibited clear fluorescence | almost no change in fluorescence intensity | Fluorescence imaging with the fixed samples was also possible | a definite difference in fluorescence level among individual cells was observed
CCN(CC)c1ccc2c(c1)Oc1c(ccc(O[C@@H]3O[C@H](CO)[C@H](O)[C@H](O)[C@H]3O)c1C(F)F)C21OCc2ccccc21 (stereo partly drawn) [4-CHF2-HMDER-βGal, (2S,3R,4S,5R,6R)-2-((3′-(diethyiamino)-5′-(difluoromethyl)-3H-spiro[isobenzofuran-1,9′-xanthen]-6′-yl)-oxy)-6-(hydroxymethyl)tetrahydro-2H-pyran-3,4,5-triol] | Fluorescence was observed at the band of BSA | Fluorescence labeling to the intracellular protein was confirmed | emitted fluorescence | – | – | – | – | – | – | – | – | – | – | – | –
CCN(CC)c1ccc2c(c1)Oc1cc(OC3OC(CO)C(O)C(O)C3O)ccc1C21OCc2ccccc21 (centres unmarked) [HMDER-βGal, reference compound] | Fluorescence was not observed | Fluorescence was not confirmed | – | – | – | – | the cells could not be differentiated | – | – | – | the region of interest having β-galactosidase activity could not be discerned | – | – | – | fluorescence imaging of β-galactosidase activity of individual eels was not possible

From patent US9981934B2, “Enzyme-specific fluorescent compound capable of being retained in cells” (The University of Tokyo, priority 2014, dated 2018)
